Laboratory results published in the NIST ThermoML archive (doi:10.1016/j.jct.2005.08.015).

Experiment: of the first substance listed, at infinite dilution; xn = mol fraction of the nth substance listed
Conditions: Liquid, vibrating tube densimetry, x1 = 0

OCCCO [propan-1,3-diol] + O
Conditions | partial molar volume [m3/mol]
298.22 K, 640 kPa | 7.193e-05
298.22 K, 29780 kPa | 7.167e-05
298.23 K, 15160 kPa | 7.183e-05
318.17 K, 480 kPa | 7.262e-05
318.17 K, 14770 kPa | 7.234e-05
318.17 K, 30240 kPa | 7.212e-05
338.16 K, 440 kPa | 7.345e-05
338.16 K, 15130 kPa | 7.315e-05
338.16 K, 30290 kPa | 7.289e-05
373.13 K, 30110 kPa | 7.451e-05
373.14 K, 15170 kPa | 7.496e-05
373.16 K, 1960 kPa | 7.536e-05
408.15 K, 14940 kPa | 7.727e-05
408.15 K, 30010 kPa | 7.668e-05
408.16 K, 1870 kPa | 7.783e-05
442.02 K, 1820 kPa | 8.074e-05
442.03 K, 15700 kPa | 7.994e-05
442.08 K, 29800 kPa | 7.924e-05
473.15 K, 1940 kPa | 8.402e-05
473.16 K, 15710 kPa | 8.291e-05
473.16 K, 30280 kPa | 8.188e-05
498.15 K, 15940 kPa | 8.561e-05
498.16 K, 2960 kPa | 8.701e-05
498.16 K, 30110 kPa | 8.438e-05
523.16 K, 5030 kPa | 9.047e-05
523.16 K, 16160 kPa | 8.885e-05
523.16 K, 30260 kPa | 8.723e-05
548.18 K, 7070 kPa | 9.443e-05
548.18 K, 18040 kPa | 9.233e-05
548.18 K, 30580 kPa | 9.05e-05
573.17 K, 30240 kPa | 9.414e-05
573.18 K, 10100 kPa | 9.925e-05
573.19 K, 19920 kPa | 9.645e-05

OCCO [1,2-ethanediol] + O
Conditions | partial molar volume [m3/mol]
298.21 K, 640 kPa | 5.462e-05
298.21 K, 29790 kPa | 5.452e-05
298.23 K, 15130 kPa | 5.457e-05
318.17 K, 470 kPa | 5.548e-05
318.17 K, 14770 kPa | 5.53e-05
318.17 K, 30150 kPa | 5.516e-05
338.16 K, 440 kPa | 5.63e-05
338.16 K, 15150 kPa | 5.604e-05
338.16 K, 30360 kPa | 5.584e-05
373.12 K, 30010 kPa | 5.724e-05
373.14 K, 15170 kPa | 5.754e-05
373.15 K, 1960 kPa | 5.78e-05
408.15 K, 30070 kPa | 5.89e-05
408.16 K, 1760 kPa | 5.969e-05
408.16 K, 15000 kPa | 5.932e-05
441.98 K, 1950 kPa | 6.178e-05
442.03 K, 15670 kPa | 6.123e-05
442.04 K, 29810 kPa | 6.072e-05
473.15 K, 1900 kPa | 6.408e-05
473.15 K, 30250 kPa | 6.266e-05
473.16 K, 15750 kPa | 6.337e-05
498.15 K, 15970 kPa | 6.53e-05
498.15 K, 30110 kPa | 6.448e-05
498.16 K, 2930 kPa | 6.621e-05
523.16 K, 5030 kPa | 6.856e-05
523.16 K, 16160 kPa | 6.754e-05
523.16 K, 30260 kPa | 6.653e-05
548.17 K, 7030 kPa | 7.13e-05
548.18 K, 18020 kPa | 6.994e-05
548.18 K, 30300 kPa | 6.88e-05
573.14 K, 30090 kPa | 7.119e-05
573.18 K, 10040 kPa | 7.399e-05
573.19 K, 15080 kPa | 7.318e-05
573.19 K, 19910 kPa | 7.25e-05
573.23 K, 24730 kPa | 7.182e-05

OCC(O)CO [glycerol] + O
Conditions | partial molar volume [m3/mol]
298.21 K, 640 kPa | 7.093e-05
298.21 K, 29800 kPa | 7.103e-05
298.22 K, 15170 kPa | 7.097e-05
318.17 K, 470 kPa | 7.205e-05
318.17 K, 14770 kPa | 7.195e-05
318.17 K, 30260 kPa | 7.194e-05
338.16 K, 440 kPa | 7.304e-05
338.16 K, 15150 kPa | 7.288e-05
338.16 K, 30360 kPa | 7.277e-05
373.13 K, 15180 kPa | 7.444e-05
373.13 K, 30110 kPa | 7.428e-05
373.14 K, 1980 kPa | 7.463e-05
408.15 K, 30120 kPa | 7.586e-05
408.16 K, 1830 kPa | 7.644e-05
408.16 K, 14970 kPa | 7.616e-05
441.99 K, 1850 kPa | 7.825e-05
442.03 K, 15670 kPa | 7.795e-05
442.13 K, 29820 kPa | 7.764e-05
473.15 K, 1960 kPa | 8e-05
473.15 K, 15740 kPa | 7.962e-05
473.16 K, 30290 kPa | 7.92e-05
498.15 K, 3000 kPa | 8.129e-05
498.15 K, 30210 kPa | 8.047e-05
498.16 K, 15930 kPa | 8.087e-05
523.15 K, 16150 kPa | 8.212e-05
523.16 K, 5030 kPa | 8.238e-05
523.16 K, 30280 kPa | 8.184e-05
548.17 K, 7070 kPa | 8.292e-05
548.18 K, 18040 kPa | 8.309e-05
548.18 K, 30570 kPa | 8.347e-05
573.14 K, 30040 kPa | 8.344e-05
573.18 K, 10150 kPa | 8.171e-05
573.19 K, 15080 kPa | 8.249e-05
573.19 K, 19940 kPa | 8.3e-05
573.25 K, 24690 kPa | 8.32e-05

CC(O)CO (stereo unspecified) [1,2-propanediol] + O
Conditions | partial molar volume [m3/mol]
298.21 K, 640 kPa | 7.123e-05
298.22 K, 15160 kPa | 7.119e-05
298.22 K, 29790 kPa | 7.112e-05
318.17 K, 500 kPa | 7.214e-05
318.17 K, 14770 kPa | 7.192e-05
318.17 K, 30140 kPa | 7.175e-05
338.16 K, 440 kPa | 7.321e-05
338.16 K, 15160 kPa | 7.291e-05
338.16 K, 30320 kPa | 7.263e-05
373.13 K, 15150 kPa | 7.509e-05
373.13 K, 29980 kPa | 7.46e-05
373.14 K, 2010 kPa | 7.548e-05
408.15 K, 29980 kPa | 7.718e-05
408.16 K, 1760 kPa | 7.843e-05
408.16 K, 15000 kPa | 7.781e-05
441.99 K, 1840 kPa | 8.185e-05
442.03 K, 15650 kPa | 8.093e-05
442.03 K, 29800 kPa | 8.01e-05
473.15 K, 1890 kPa | 8.576e-05
473.15 K, 15760 kPa | 8.445e-05
473.16 K, 30230 kPa | 8.325e-05
498.15 K, 2930 kPa | 8.947e-05
498.15 K, 15970 kPa | 8.777e-05
498.15 K, 30110 kPa | 8.627e-05
523.16 K, 4980 kPa | 9.38e-05
523.16 K, 16130 kPa | 9.172e-05
523.16 K, 30320 kPa | 8.966e-05
548.17 K, 7020 kPa | 9.914e-05
548.18 K, 18020 kPa | 9.621e-05
548.18 K, 30440 kPa | 9.367e-05
573.14 K, 30360 kPa | 9.86e-05
573.18 K, 10120 kPa | 0.000106
573.19 K, 19990 kPa | 0.0001018
